Reference: ChEMBL document CHEMBL4507305, “Data for DCP probe TP-024” (2021)

Key:
[1] = target: Tyrosine-protein kinase ABL1 (Homo sapiens) (UniProt P00519); conditions: Compound concentration 1000.0 nM
[2] = target: RAC-beta serine/threonine-protein kinase (Homo sapiens) (UniProt P31751); conditions: Compound concentration 1000.0 nM
[3] = target: RAC-gamma serine/threonine-protein kinase (Homo sapiens) (UniProt Q9Y243); conditions: Compound concentration 1000.0 nM
[4] = target: Tyrosine-protein kinase Blk (Homo sapiens) (UniProt P51451); conditions: Compound concentration 1000.0 nM
[5] = target: Bone morphogenetic protein receptor type-2 (Homo sapiens) (UniProt Q13873); conditions: Compound concentration 1000.0 nM
[6] = target: Cytoplasmic tyrosine-protein kinase BMX (Homo sapiens) (UniProt P51813); conditions: Compound concentration 1000.0 nM
[7] = target: Calcium/calmodulin-dependent protein kinase type 1B (Homo sapiens) (UniProt Q6P2M8); conditions: Compound concentration 1000.0 nM
[8] = target: Calcium/calmodulin-dependent protein kinase kinase 2 (Homo sapiens) (UniProt Q96RR4); conditions: Compound concentration 1000.0 nM
[9] = target: Citron Rho-interacting kinase (Homo sapiens) (UniProt O14578); conditions: Compound concentration 1000.0 nM
[10] = target: Casein kinase I isoform delta (Homo sapiens) (UniProt P48730); conditions: Compound concentration 1000.0 nM
[11] = target: Serine/threonine-protein kinase MRCK gamma (Homo sapiens) (UniProt Q6DT37); conditions: Compound concentration 1000.0 nM
[12] = target: Serine/threonine-protein kinase 17A (Homo sapiens) (UniProt Q9UEE5); conditions: Compound concentration 1000.0 nM
[13] = test system: Epidermal growth factor receptor (Homo sapiens), P00533 [T790M]; conditions: Compound concentration 1000.0 nM
[14] = target: Receptor tyrosine-protein kinase erbB-3 (Homo sapiens) (UniProt P21860); conditions: Compound concentration 1000.0 nM
[15] = target: G protein-coupled receptor kinase 4 (Homo sapiens) (UniProt P32298); conditions: Compound concentration 1000.0 nM
[16] = target: Homeodomain-interacting protein kinase 2 (Homo sapiens) (UniProt Q9H2X6); conditions: Compound concentration 1000.0 nM
[17] = target: Mitogen-activated protein kinase 8 (Homo sapiens) (UniProt P45983); conditions: Compound concentration 1000.0 nM
[18] = test system: Mast/stem cell growth factor receptor Kit (Homo sapiens), P10721 [A829P]; conditions: Compound concentration 1000.0 nM
[19] = target: Mitogen-activated protein kinase kinase kinase kinase 4 (Homo sapiens) (UniProt O95819); conditions: Compound concentration 1000.0 nM
[20] = target: Mitogen-activated protein kinase kinase kinase kinase 5 (Homo sapiens) (UniProt Q9Y4K4); conditions: Compound concentration 1000.0 nM
[21] = test system: Hepatocyte growth factor receptor (Homo sapiens), P08581 [Y1235D]; conditions: Compound concentration 1000.0 nM
[22] = target: Mitogen-activated protein kinase kinase kinase 10 (Homo sapiens) (UniProt Q02779); conditions: Compound concentration 1000.0 nM
[23] = target: Serine/threonine-protein kinase MRCK beta (Homo sapiens) (UniProt Q9Y5S2); conditions: Compound concentration 1000.0 nM
[24] = target: Macrophage-stimulating protein receptor (Homo sapiens) (UniProt Q04912); conditions: Compound concentration 1000.0 nM
[25] = target: Serine/threonine-protein kinase 26 (Homo sapiens) (UniProt Q9P289); conditions: Compound concentration 1000.0 nM
[26] = target: Serine/threonine-protein kinase 38 (Homo sapiens) (UniProt Q15208); conditions: Compound concentration 1000.0 nM
[27] = target: Cyclin-dependent kinase 15 (Homo sapiens) (UniProt Q96Q40); conditions: Compound concentration 1000.0 nM
[28] = test system: Phosphatidylinositol 4,5-bisphosphate 3-kinase catalytic subunit alpha isoform (Homo sapiens), P42336 [E545A]; conditions: Compound concentration 1000.0 nM
[29] = target: Serine/threonine-protein kinase N1 (Homo sapiens) (UniProt Q16512); conditions: Compound concentration 1000.0 nM
[30] = target: Serine/threonine-protein kinase PknB (Mycobacterium tuberculosis) (UniProt P9WI81); conditions: Compound concentration 1000.0 nM
[31] = target: Serine/threonine-protein kinase PLK2 (Homo sapiens) (UniProt Q9NYY3); conditions: Compound concentration 1000.0 nM
[32] = test system: Proto-oncogene tyrosine-protein kinase receptor Ret (Homo sapiens), P07949 [V804L]; conditions: Compound concentration 1000.0 nM
[33] = target: Serine/threonine-protein kinase Sgk2 (Homo sapiens) (UniProt Q9HBY8); conditions: Compound concentration 1000.0 nM
[34] = target: NUAK family SNF1-like kinase 2 (Homo sapiens) (UniProt Q9H093); conditions: Compound concentration 1000.0 nM
[35] = target: Proto-oncogene tyrosine-protein kinase Src (Homo sapiens) (UniProt P12931); conditions: Compound concentration 1000.0 nM
[36] = target: SRSF protein kinase 1 (Homo sapiens) (UniProt Q96SB4); conditions: Compound concentration 1000.0 nM
[37] = target: SRSF protein kinase 3 (Homo sapiens) (UniProt Q9UPE1); conditions: Compound concentration 1000.0 nM
[38] = target: Mitogen-activated protein kinase kinase kinase 7 (Homo sapiens) (UniProt O43318); conditions: Compound concentration 1000.0 nM
[39] = target: TGF-beta receptor type-2 (Homo sapiens) (UniProt P37173); conditions: Compound concentration 1000.0 nM
[40] = target: Tyrosine-protein kinase receptor Tie-1 (Homo sapiens) (UniProt P35590); conditions: Compound concentration 1000.0 nM
[41] = target: Angiopoietin-1 receptor (Homo sapiens) (UniProt Q02763); conditions: Compound concentration 1000.0 nM
[42] = target: Transient receptor potential cation channel subfamily M member 6 (Homo sapiens) (UniProt Q9BX84); conditions: Compound concentration 1000.0 nM
[43] = target: Non-receptor tyrosine-protein kinase TYK2 (Homo sapiens) (UniProt P29597); conditions: Compound concentration 1000.0 nM
[44] = target: Tyrosine-protein kinase receptor TYRO3 (Homo sapiens) (UniProt Q06418); conditions: Compound concentration 1000.0 nM
[45] = target: Sigma intracellular receptor 2 (Homo sapiens) (UniProt Q5BJF2); conditions: Compound concentration 10.0 uM

Sequence of Mitogen-activated protein kinase kinase kinase kinase 4 (Homo sapiens) (O95819 2-1239 limits assumed): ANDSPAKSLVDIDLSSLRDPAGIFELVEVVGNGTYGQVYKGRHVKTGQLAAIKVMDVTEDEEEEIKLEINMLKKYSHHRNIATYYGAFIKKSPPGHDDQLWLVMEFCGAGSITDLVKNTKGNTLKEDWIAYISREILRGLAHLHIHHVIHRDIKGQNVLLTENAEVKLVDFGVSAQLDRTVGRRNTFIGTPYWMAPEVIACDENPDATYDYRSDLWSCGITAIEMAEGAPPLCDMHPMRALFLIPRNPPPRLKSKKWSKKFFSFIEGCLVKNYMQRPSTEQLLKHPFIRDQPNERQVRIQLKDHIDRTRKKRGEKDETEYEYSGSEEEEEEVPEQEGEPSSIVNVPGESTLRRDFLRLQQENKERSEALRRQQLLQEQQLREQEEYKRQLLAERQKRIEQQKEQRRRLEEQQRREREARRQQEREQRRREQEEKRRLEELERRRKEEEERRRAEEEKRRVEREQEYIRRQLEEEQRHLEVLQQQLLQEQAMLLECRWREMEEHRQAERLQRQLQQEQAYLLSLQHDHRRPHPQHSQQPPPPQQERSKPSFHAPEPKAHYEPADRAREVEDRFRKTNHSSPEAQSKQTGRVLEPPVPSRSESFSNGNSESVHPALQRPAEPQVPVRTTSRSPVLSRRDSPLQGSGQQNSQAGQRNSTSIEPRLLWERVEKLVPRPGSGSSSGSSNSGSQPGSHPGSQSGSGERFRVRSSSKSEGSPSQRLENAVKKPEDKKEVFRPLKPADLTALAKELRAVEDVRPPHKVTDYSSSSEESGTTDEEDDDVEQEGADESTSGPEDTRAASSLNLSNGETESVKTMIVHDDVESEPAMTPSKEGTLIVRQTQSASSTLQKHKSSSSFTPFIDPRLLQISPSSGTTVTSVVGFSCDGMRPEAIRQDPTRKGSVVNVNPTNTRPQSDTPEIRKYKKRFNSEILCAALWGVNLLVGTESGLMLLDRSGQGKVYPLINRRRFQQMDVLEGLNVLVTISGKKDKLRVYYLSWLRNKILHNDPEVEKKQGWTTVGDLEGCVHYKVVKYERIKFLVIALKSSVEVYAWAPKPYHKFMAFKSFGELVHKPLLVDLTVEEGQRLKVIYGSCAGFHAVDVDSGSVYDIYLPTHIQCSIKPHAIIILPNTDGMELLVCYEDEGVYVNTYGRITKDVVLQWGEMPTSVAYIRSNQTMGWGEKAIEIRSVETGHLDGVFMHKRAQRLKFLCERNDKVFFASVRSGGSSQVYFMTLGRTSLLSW
Sequence of Serine/threonine-protein kinase N1 (Homo sapiens) (Q16512 2-942 limits assumed): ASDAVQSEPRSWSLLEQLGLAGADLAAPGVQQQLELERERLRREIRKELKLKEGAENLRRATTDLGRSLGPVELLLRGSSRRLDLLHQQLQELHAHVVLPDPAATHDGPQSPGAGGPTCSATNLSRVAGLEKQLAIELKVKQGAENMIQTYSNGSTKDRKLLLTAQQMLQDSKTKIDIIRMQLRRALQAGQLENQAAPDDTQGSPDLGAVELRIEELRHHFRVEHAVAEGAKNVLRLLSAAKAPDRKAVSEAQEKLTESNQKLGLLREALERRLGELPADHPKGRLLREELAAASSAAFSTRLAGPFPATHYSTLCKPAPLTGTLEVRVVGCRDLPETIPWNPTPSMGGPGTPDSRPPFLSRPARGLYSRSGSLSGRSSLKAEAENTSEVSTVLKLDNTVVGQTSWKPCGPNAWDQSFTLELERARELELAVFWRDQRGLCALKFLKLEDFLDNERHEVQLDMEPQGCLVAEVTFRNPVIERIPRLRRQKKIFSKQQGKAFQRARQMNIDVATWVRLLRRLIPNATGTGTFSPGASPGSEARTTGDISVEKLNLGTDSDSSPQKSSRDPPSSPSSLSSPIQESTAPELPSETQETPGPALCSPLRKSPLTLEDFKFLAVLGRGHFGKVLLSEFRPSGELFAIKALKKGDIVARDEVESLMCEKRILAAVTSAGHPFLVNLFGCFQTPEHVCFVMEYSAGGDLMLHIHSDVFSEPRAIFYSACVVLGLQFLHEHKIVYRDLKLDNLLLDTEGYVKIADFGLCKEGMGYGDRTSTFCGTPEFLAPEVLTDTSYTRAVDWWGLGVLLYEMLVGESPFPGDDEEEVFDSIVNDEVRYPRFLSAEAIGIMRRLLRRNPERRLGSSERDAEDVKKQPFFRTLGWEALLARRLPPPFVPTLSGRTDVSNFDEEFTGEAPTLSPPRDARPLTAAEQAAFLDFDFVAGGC
Sequence of G protein-coupled receptor kinase 4 (Homo sapiens) (P32298 whole entry, looked up): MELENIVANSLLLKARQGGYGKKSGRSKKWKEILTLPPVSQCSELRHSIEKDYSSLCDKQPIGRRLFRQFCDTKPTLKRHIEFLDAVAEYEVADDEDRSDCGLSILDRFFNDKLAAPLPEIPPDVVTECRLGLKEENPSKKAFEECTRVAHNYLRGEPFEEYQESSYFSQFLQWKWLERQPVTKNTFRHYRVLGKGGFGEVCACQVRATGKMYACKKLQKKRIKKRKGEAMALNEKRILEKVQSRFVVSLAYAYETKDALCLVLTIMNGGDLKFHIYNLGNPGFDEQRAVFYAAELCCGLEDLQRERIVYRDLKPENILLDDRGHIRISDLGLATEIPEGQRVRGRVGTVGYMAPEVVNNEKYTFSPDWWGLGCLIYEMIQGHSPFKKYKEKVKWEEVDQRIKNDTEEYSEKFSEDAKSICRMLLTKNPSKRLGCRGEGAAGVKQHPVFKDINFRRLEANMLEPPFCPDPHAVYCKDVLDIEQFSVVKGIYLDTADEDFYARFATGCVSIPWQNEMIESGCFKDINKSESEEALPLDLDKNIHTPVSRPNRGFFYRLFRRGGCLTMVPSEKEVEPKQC
Sequence of Tyrosine-protein kinase receptor Tie-1 (Homo sapiens) (P35590 whole entry): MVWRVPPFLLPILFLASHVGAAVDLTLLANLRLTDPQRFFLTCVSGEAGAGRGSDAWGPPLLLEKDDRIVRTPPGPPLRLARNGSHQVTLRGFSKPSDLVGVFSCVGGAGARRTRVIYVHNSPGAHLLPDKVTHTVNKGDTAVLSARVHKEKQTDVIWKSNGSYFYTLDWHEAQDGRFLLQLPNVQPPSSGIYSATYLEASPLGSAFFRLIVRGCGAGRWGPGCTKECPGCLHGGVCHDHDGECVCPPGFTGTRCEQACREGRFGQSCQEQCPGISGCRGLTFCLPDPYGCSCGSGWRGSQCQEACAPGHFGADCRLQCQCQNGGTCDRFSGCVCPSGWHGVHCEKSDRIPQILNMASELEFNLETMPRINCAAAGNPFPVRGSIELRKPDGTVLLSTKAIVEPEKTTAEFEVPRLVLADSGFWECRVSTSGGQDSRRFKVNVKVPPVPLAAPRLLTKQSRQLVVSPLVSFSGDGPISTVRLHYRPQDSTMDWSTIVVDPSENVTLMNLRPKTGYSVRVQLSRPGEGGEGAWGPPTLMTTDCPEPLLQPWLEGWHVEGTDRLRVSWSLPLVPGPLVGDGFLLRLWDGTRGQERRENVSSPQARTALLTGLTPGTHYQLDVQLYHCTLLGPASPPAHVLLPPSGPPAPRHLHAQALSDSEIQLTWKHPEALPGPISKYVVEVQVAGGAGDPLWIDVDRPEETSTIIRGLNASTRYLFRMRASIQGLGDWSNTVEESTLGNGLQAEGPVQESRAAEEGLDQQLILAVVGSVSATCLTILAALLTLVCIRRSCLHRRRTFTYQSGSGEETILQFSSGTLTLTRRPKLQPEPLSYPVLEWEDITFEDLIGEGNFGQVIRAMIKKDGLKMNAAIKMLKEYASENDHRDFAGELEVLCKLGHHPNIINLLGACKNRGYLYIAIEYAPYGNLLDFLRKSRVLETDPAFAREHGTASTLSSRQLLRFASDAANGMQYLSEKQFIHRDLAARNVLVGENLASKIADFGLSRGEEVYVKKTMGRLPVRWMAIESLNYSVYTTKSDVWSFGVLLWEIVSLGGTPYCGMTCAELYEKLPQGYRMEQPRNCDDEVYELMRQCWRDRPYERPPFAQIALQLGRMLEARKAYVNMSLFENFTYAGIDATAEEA
Sequence of Mitogen-activated protein kinase kinase kinase kinase 5 (Homo sapiens) (Q9Y4K4 whole entry, looked up): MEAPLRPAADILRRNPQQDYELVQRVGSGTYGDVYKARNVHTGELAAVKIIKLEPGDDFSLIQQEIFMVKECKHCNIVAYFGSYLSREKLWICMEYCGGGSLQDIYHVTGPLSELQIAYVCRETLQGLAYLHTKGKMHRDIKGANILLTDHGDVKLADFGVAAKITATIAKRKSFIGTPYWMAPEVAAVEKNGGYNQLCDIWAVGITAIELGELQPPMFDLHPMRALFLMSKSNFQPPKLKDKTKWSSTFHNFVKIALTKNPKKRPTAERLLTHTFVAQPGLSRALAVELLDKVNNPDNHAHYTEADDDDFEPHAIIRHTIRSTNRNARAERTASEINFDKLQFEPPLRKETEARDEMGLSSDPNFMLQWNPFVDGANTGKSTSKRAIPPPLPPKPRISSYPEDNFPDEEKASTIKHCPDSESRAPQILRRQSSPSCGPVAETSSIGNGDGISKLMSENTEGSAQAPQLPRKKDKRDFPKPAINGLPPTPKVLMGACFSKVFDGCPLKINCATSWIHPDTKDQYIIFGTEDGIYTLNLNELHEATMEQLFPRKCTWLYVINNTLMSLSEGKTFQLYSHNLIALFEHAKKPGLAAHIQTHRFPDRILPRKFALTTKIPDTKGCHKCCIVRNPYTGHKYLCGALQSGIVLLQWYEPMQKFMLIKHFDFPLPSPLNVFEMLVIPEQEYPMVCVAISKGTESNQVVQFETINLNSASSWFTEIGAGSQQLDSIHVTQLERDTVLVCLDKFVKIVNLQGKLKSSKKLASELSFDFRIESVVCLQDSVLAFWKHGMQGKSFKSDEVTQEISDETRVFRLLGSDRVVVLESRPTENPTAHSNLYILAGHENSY
Sequence of Calcium/calmodulin-dependent protein kinase type 1B (Homo sapiens) (Q6P2M8 whole entry): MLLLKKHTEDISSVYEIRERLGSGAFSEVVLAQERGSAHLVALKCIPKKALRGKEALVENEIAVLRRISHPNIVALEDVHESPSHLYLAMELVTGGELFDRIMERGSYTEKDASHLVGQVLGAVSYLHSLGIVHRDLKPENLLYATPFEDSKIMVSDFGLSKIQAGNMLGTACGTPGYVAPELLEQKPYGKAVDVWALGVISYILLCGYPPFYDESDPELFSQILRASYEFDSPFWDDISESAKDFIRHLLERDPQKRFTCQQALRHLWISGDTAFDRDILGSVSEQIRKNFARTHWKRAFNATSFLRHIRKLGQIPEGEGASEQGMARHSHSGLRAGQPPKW

Work on Cc1nc(Cc2cccc(C(F)(F)F)c2)sc1-c1ccc(C(N)=O)nc1 [TP-024n] yielded a residual activity [1] of 95%, a residual activity [2] of 81% and a residual activity [3] of 92%. It also gave a residual activity [4] of 100%, a residual activity [5] of 100% and a residual activity [6] of 59%. The residual activity [7] was 100%, the residual activity [8] was 91% and the residual activity [9] was 65%. It also gave a residual activity [10] of 75%, a residual activity [11] of 100% and a residual activity [12] of 82%. For the same compound, the residual activity [13] was 98%, the residual activity [14] was 100% and the residual activity [15] was 100%. For the same compound, the residual activity [16] was 100%, the residual activity [17] was 90% and the residual activity [18] was 96%. The residual activity [19] was 80%, the residual activity [20] was 87% and the residual activity [21] was 91%. The residual activity [22] was 71%, the residual activity [23] was 39% and the residual activity [24] was 100%. The residual activity [25] was 83%, the residual activity [26] was 81% and the residual activity [27] was 86%. For the same compound, the residual activity [28] was 100%, the residual activity [29] was 98% and the residual activity [30] was 99%. It also gave a residual activity [31] of 82%, a residual activity [32] of 86% and a residual activity [33] of 95%. It also gave a residual activity [34] of 100%, a residual activity [35] of 80% and a residual activity [36] of 75%. It also gave a residual activity [37] of 100%, a residual activity [38] of 93% and a residual activity [39] of 100%. It also gave a residual activity [40] of 28%, a residual activity [41] of 80% and a residual activity [42] of 88%. The residual activity [43] was 100%, the residual activity [44] was 99% and the inhibition [45] was -8.52%.
Work on Cc1cc(-n2nc(Cc3cc(F)cc(C(F)(F)F)c3)nc2C)ccc1C(N)=O [TP-024] yielded a residual activity [1] of 97%, a residual activity [2] of 100% and a residual activity [3] of 100%. For the same compound, the residual activity [4] was 100%, the residual activity [5] was 100% and the residual activity [6] was 100%. For the same compound, the residual activity [7] was 100%, the residual activity [8] was 100% and the residual activity [9] was 95%. For the same compound, the residual activity [10] was 100%, the residual activity [11] was 100% and the residual activity [12] was 100%. The residual activity [13] was 94%, the residual activity [14] was 100% and the residual activity [15] was 100%. For the same compound, the residual activity [16] was 100%, the residual activity [17] was 78% and the residual activity [18] was 100%. For the same compound, the residual activity [19] was 100%, the residual activity [20] was 100% and the residual activity [21] was 90%. The residual activity [22] was 95%, the residual activity [23] was 100% and the residual activity [24] was 100%. The residual activity [25] was 100%, the residual activity [26] was 83% and the residual activity [27] was 88%. For the same compound, the residual activity [28] was 100%, the residual activity [29] was 100% and the residual activity [30] was 78%. It also gave a residual activity [31] of 100%, a residual activity [32] of 100% and a residual activity [33] of 100%. The residual activity [34] was 100%, the residual activity [35] was 95% and the residual activity [36] was 81%. The residual activity [37] was 100%, the residual activity [38] was 100% and the residual activity [39] was 100%. For the same compound, the residual activity [40] was 100%, the residual activity [41] was 92% and the residual activity [42] was 100%. For the same compound, the residual activity [43] was 100%, the residual activity [44] was 100% and the inhibition [45] was -7.3%.
